Results published in publication PMC11381544 (Nature Communications, 2024).

Tested on: P3H1 within the PCP complex
Assay: 2-OG dependent oxygenase activity
Type: biochemical, human
Settings: Succinate-Glo assay, Fig. 1g, Fig. 3f, Supplementary Fig. 1f

Q: How did the “2OG-Fe (II) oxygenase / P3H1 activity, in words” value turn out when “PCP ternary complex: low molecular weight elution fractions corresponding to the PCP ternary complex” was run?
A: The value was “inhibited upon depletion of ferrous ions”.

Q: “peak HW: high molecular weight elution fractions corresponding to the PCP dual-ternary complex” was tested. Which “2OG-Fe (II) oxygenase / P3H1 activity, in words” value did it give?
A: Its value is “slightly lower P3H1 activity”.

Q: What does the source list for “PCP-PPIBR95A: PCP complex with PPIB enzymatic mutation at the PI-site, R95A”?
A: 2OG-Fe (II) oxygenase / P3H1 activity, in words (listed as PPIB^R95A): elevated P3H1 activities; 2OG-Fe (II) oxygenase / P3H1 activity, in words (listed as R95A): enhancing P3H1 activities

Q: How did the “2OG-Fe (II) oxygenase / P3H1 activity, in words” value turn out when cyclosporin A [CsA, reference compound] was run?
A: Its value is “hydroxylation enhancement was absent”.
